In patent publication US20230357139A1, “SMALL MOLECULE INHIBITORS OF BACTERIAL TOXINS” (Artizan Biosciences, Inc., priority 2020, published 2023):
Where two headings read alike, the source gives them in different places.

Assays:
collagenase H (ColH) = collagenase H (ColH) (Hathewaya histolytica, UniProt Q46085); experiment: biochemical; set-up: species or system Clostridium histolyticum
BFT = experiment: E-cadherin release assay (BFT-induced E-cadherin release from HT29 cells); format: cell-based, B. fragilis; conditions: 18 hours, E-cadherin in supernatant by ELISA, read-out: HT29 Cell IC50
Method: Test compounds were also screened for their ability to inhibit BFT-induced E-cadherin release from HT29 cells.
Different concentrations of test compounds were pre-incubated with rBFT for one hour at 37° C. The rBFT-compound mixture was then added to HT29 cells and incubated at 37° C. for 18 hours. Following incubation, cell supernatants were harvested and E-cadherin was quantified in the supernatants by ELISA (FIG. 2).

recombinant BFT (rBFT) = experiment: NFF-3 cleavage assay; format: biochemical, B. fragilis; conditions: rBFT pre-incubated with compound 30 minutes at 37° C., then NFF-3 for 24 hours; read-out: NFF3 IC50
Method: A NFF-3 cleavage assay was used to test activity of recombinant BFT, before or after addition of various inhibitors. The NFF-3 cleavage assay was previously described by Goulas et al., PNAS, 2011, 108(5) 1856-1861, which is incorporated by reference herein in its entirety.
Initially, recombinant BFT (rBFT) (0.25, 0.5, 1, 2, 4, 8, or 16 μg/mL) was incubated at 37° C. with the fluorogenic substrate NFF-3 (Cayman Chemical) at a concentration of 2.5 μM, 5 μM, or 10 μM. After 18 hours, fluorescence was measured in a microplate fluorimeter.
Next, rBFT was pre-incubated with one or more test compounds at different concentrations for 30 minutes at 37° C. The rBFT-compound mixture was then added to NFF-3 and incubated for 24 hours at 37° C. Fluorescence was then measured in a microplate fluorimeter.

ETBF = experiment: ETBF-mediated disease model in mono-colonized germ-free mice; format: in vivo; conditions: for lipocalin2 levels: 15-50 mg/kg p.o., QD
Method: Test compounds were also screened in vivo. Germ-free (GF) mice were mono-colonized with ETBF on day 0. […] Markers of injury and inflammation (e.g., cecal weight and fecal lipocalin 2) were analyzed on day 4 (FIG. 6A). Sample size was 5-6 mice per group.

Gelatinase E (GelE) = Gelatinase E (GelE) (Enterococcus faecalis (strain ATCC 700802 / V583), UniProt Q833V7); experiment: Gelatinase E activity assay (FRET peptide substrate); format: biochemical; conditions: Table 11
Sequence of Gelatinase E (GelE) (Q833V7 193-510 limits assumed): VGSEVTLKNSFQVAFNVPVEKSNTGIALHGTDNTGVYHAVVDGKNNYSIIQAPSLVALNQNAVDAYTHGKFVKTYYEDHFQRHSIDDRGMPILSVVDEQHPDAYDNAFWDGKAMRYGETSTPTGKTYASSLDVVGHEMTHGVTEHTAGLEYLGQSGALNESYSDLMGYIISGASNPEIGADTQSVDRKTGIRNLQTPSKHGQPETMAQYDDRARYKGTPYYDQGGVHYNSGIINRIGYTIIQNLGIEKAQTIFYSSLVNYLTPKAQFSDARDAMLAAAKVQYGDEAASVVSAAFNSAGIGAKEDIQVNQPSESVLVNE
Method: Gelatinase E (Gel E) was purified from bacterial culture supernatant from E. faecalis. E. faecalis was cultured aerobically in Todd Hewitt Broth overnight at 37° C. Nucleic acid was precipitated with 0.9% protamine solution, followed by protein precipitation with ammonium sulfate. Resuspended protein pellet was further subjected to purification using FPLC (phenyl Sepharose column). Fractions with gelatinase activity as determined by casein agar assay were pooled and further concentrated.
Different concentrations of test compound were incubated with purified GelE and FRET-based peptide substrate (390 MMP FRET Substrate 1; Anaspec AS-27077) in assay buffer at room temperature for 30 minutes. The fluorescence signal was determined by a plate reader.

[1] = ETBF-colonized mice, 50 mg/kg oral BID days 1-3, analyzed day 4

Sequence of collagenase H (ColH) (Q46085 41-1021 limits assumed): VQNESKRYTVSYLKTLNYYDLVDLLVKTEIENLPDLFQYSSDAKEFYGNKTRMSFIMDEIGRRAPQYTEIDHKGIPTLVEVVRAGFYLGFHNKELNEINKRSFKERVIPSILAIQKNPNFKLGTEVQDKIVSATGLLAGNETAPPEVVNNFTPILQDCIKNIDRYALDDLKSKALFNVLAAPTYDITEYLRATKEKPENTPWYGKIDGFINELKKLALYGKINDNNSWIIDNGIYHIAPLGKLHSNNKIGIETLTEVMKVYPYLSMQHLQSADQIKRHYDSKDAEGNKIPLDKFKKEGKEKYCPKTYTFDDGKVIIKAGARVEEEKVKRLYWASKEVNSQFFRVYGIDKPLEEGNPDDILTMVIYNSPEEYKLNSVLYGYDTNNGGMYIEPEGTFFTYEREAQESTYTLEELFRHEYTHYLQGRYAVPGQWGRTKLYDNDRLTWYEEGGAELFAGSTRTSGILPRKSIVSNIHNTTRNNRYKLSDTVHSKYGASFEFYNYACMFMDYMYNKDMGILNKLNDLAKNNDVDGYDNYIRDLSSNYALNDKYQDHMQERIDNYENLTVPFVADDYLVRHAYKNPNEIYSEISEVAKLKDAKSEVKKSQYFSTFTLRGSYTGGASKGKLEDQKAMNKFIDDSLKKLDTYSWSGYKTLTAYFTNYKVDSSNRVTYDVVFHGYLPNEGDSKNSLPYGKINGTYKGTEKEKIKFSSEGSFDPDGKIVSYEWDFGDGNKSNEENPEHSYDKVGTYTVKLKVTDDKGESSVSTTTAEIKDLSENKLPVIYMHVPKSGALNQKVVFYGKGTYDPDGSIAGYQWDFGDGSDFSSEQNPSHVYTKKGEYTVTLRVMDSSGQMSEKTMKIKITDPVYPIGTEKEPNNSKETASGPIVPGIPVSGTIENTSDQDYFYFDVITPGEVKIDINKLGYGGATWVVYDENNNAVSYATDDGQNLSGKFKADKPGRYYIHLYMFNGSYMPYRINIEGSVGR

SMILES | IC50 (collagenase H (ColH)) [nM] | IC50 (collagenase H (ColH); read-out: ColH IC50) [nM] | IC50 (Gelatinase E (GelE)) [nM] | other results
CC(C)C[C@H](C(=O)NO)N(Cc1ccc(F)cc1)S(=O)(=O)c1ccc(O)cc1 [Example 26] | 19300 | – | – | IC50 (BFT): 1280 nM
CC(C)C[C@H](C(=O)NO)N(Cc1ccc2[nH]ccc2c1)S(=O)(=O)c1ccc(O)cc1 [Example 33] | 384 | – | – | IC50 (BFT): 1740 nM; IC50 (recombinant BFT (rBFT)): 140 nM
CCC[C@H](C(=O)NO)N(Cc1cccnc1)S(=O)(=O)c1ccc(O)cc1 [Example 42] | 8780 | – | – | lipocalin2 levels (ETBF): significantly reduce; IC50 (recombinant BFT (rBFT)): 90 nM
CC[C@H](C(=O)NO)N(CCc1cccnc1)S(=O)(=O)c1ccc(O)cc1 [Example 60, (R)—N-hydroxy-2-((4-hydroxy-N-(2-(pyridin-3-yl)ethyl)phenyl)sulfonamido)butanamide] | 3820 | – | – | lipocalin2 levels (ETBF): significantly reduce; IC50 (recombinant BFT (rBFT)): 18.8 nM
CC(C)CN(CC(=O)NO)S(=O)(=O)c1ccc(OCc2ccc(F)cc2)cc1 [F] | – | > 100000 | 649 | –
COCCOc1ccc(S(=O)(=O)N(CC(=O)NO)CC(C)C)cc1 [G] | – | > 100000 | 443 | –
COc1ccc(S(=O)(=O)N(CC(=O)O)Cc2cccnc2)cc1 [I] | – | > 100000 | > 100000 | –
CNC(=O)COc1ccc(S(=O)(=O)N(CC(=O)NO)CC(C)C)cc1 [K] | > 100000 | – | 512 | –
COc1ccc(S(=O)(=O)N(CC(=O)NO)CC(C)C)cn1 [L] | – | > 100000 | 336 | –
CSc1ccc(S(=O)(=O)N(CC(=O)NO)CC(C)C)cc1 [M] | – | > 100000 | 257 | –
CC(C)[C@H](C(=O)NO)N(Cc1cccnc1)S(=O)(=O)c1ccc(O)cc1 [OH-CGS-23270A, 2(R)-[4-Hydroxy-N-(3-pyridylmethyl)phenylsulfonamido]-3-methylbutyrohydroxamic acid, reference compound] | – | – | – | cecal weight compared to vehicle control (ETBF; [1]): significantly increased; fecal lipocalin2 compared to vehicle control (ETBF; [1]): significantly decreased
COc1ccc(S(=O)(=O)N(CC(=O)NO)CC(F)F)cc1 [P] | – | > 100000 | 9090 | –
